Each structure is given as a SMILES string.

A short description of series [1]: Half life in human liver microsomes. The series is classed as ADME, Microsome. In general terms: Liver microsomes are vesicles of endoplasmic reticulum, rich in cytochrome P450 enzymes.
Series [2] is described as follows: Intrinsic clearance in human liver microsomes. Type of series: ADME, Microsome.
For series [3], the target named is High affinity cAMP-specific and IBMX-insensitive 3',5'-cyclic phosphodiesterase 8B (Homo sapiens, UniProt O95263). Description: Inhibition of PDE8B.
Sequence of High affinity cAMP-specific and IBMX-insensitive 3',5'-cyclic phosphodiesterase 8B (O95263 whole entry): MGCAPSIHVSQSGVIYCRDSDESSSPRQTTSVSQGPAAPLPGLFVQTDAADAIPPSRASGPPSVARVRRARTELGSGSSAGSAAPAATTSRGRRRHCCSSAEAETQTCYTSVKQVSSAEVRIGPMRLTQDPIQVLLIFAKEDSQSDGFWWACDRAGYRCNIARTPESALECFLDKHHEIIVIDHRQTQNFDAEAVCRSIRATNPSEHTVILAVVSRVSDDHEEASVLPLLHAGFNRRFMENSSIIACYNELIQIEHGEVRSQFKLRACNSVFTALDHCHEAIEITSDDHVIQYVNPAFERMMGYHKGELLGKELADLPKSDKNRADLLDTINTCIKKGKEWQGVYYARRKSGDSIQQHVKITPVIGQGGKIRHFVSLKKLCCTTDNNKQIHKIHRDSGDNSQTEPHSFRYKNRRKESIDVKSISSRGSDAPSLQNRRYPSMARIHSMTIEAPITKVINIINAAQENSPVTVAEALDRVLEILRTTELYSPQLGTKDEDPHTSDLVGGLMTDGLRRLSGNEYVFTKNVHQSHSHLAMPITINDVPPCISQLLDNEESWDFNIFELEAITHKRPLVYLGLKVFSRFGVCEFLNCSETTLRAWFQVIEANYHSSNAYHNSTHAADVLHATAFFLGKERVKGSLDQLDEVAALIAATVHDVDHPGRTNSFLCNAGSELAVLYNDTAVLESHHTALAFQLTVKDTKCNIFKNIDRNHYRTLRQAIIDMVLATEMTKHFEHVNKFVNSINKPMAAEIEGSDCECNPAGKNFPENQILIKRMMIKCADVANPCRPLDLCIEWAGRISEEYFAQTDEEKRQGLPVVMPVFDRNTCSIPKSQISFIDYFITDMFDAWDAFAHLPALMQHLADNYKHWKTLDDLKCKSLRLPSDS
Series [4] in a line: Lipophilicity, log D of the compound. Type of series: physicochemical. Particulars: octanol/water.
Series [5] can be described thus: Dissociation constant, pKa of the compound. Type of series: physicochemical.
The nature of series [6]: Volume of distribution at steady state in rat. The series is classed as ADME, organism-based. Conditions: in vivo, read-out: Vdss.
Series [7] can be described thus: Clearance in rat. Type of series: ADME, organism-based. Conditions: in vivo.
Series [8] can be described thus: Oral bioavailability in rat. Conditions: in vivo. Type of series: ADME, organism-based.

On to `CC[C@@H]1C[C@@H](C(=O)NC[C@@H]2CCCO2)CN(Cc2nc(-c3ccccc3)oc2C)C1`, for which, in series [1], the half-life – broadly, the time in which the quantity being followed falls by half – was less than 3 min. For the same compound, in series [2], the microsomal CLint (in general, a measure of how fast metabolising enzymes remove a compound, apart from limits set by blood flow) is 320 µL/min/mg.
`Cc1oc(-c2ccccc2)nc1CN1CCC[C@@H](C(=O)NCc2cccc(N)n2)C1`: the half-life in series [1] is 20.5 min. The intrinsic metabolic clearance (microsomal CLint) in series [2] was determined as 49 µL/min/mg.
The matching figures for `CC[C@@H]1C[C@@H](C(=O)NC[C@@H]2CCCO2)CN(Cc2[nH]c(-c3ccncn3)nc2C)C1`: 5 min and 195 µL/min/mg.
The matching figures for `COC[C@@H]1C[C@@H](C(=O)NCC2CCOCC2)CN(Cc2nc(-c3ccccc3)oc2C)C1`: 4.09 min and 239 µL/min/mg.
The matching figures for `COC[C@@H]1C[C@@H](C(=O)NCC2CCOCC2)CN(Cc2[nH]c(-c3ccncn3)nc2C)C1`: 15.5 min and 63 µL/min/mg.
Take `Cc1oc(-c2ccccc2)nc1CN1CCC[C@@H](C(=O)NC[C@@H]2CCCO2)C1`: in series [1], the half-life amounted to 14.1 min. In series [2], the microsomal CLint worked out at 69.1 µL/min/mg.
As for `CC[C@@H]1C[C@@H](C(=O)NC[C@@H]2CCCO2)CN(Cc2nc(N3CCOCC3)oc2C)C1`, the half-life in series [1] was found to be 7.45 min. The intrinsic metabolic clearance (microsomal CLint) in series [2] was 131 µL/min/mg.
The matching figures for `CC[C@H]1C[C@@H](C(=O)NCC2CCOCC2)CN(Cc2nc(-c3ccccc3)oc2C)C1`: 4.32 min and 226 µL/min/mg.
The matching figures for `COC[C@H]1C[C@@H](C(=O)NCc2cccc(C)n2)CN(Cc2nc(-c3ccccc3)oc2C)C1`: 9.17 min and 99.5 µL/min/mg.
The matching figures for `CC[C@H]1C[C@@H](C(=O)NC[C@H]2CCCO2)CN(Cc2nc(-c3ccccc3)oc2C)C1`: 8.15 min and 120 µL/min/mg.
Compound `Cc1noc([C@@H]2C[C@@H](C(=O)NC[C@@H]3CCCO3)CN(Cc3nc(-c4ccccc4)oc3C)C2)n1` returned a half-life in series [1] of 5.68 min. Moreover, the microsomal CLint in series [2] came out at 182 µL/min/mg.
For `Cc1oc(-c2ccccc2)nc1CN1C[C@H](C(=O)NCc2cccc(N)n2)C[C@@H](c2ccccc2)C1`, the microsomal CLint in series [2] was greater than 300 µL/min/mg.
On to `Cc1cccc(CNC(=O)[C@@H]2CCN(Cc3nc(-c4ccccc4)oc3C)C2)n1`, for which the IC50 (commonly the concentration that inhibits the measured activity by half) in series [3] is greater than 10 µM.
In series [1], `CC[C@H]1C[C@@H](C(=O)NCc2cccc(C)n2)CN(Cc2nc(-c3ccccc3)oc2C)C1` showed a half-life of 7.71 min. Besides, the microsomal CLint in series [2] was found to be 118 µL/min/mg.
The matching figures for `CC[C@@H]1C[C@@H](C(=O)NCC2CCOCC2)CN(Cc2nc(N3CCOCC3)oc2C)C1`: 6.88 min and 142 µL/min/mg.
The matching figures for `COC[C@@H]1C[C@@H](C(=O)NC[C@H]2CCCO2)CN(Cc2nc(N3CCOCC3)oc2C)C1`: 23.7 min and 41 µL/min/mg.
The matching figures for `COC[C@@H]1C[C@@H](C(=O)NC[C@H]2CCCO2)CN(Cc2nc(-c3ccccc3)oc2C)C1`: 4.2 min and 233 µL/min/mg.
For `CC[C@H]1C[C@@H](C(=O)NCC2CCOCC2)CN(Cc2nc(N3CCOCC3)oc2C)C1`, the half-life in series [1] was 24.1 min. In addition, in series [2], the microsomal CLint stood at 40.6 µL/min/mg.
Regarding `COCC1CC(C(=O)NC[C@H]2CCCO2)CN(Cc2nc(N3CCOCC3)oc2C)C1` (stereo not given in full), the logD (in general, the decadic logarithm of the distribution of all forms, ionised or not, between an organic phase and buffer at a given pH) in series [4] was 1; in series [4] (read-out: logD) it was 0.8. Also, the pKa (usually the pH at which an ionisable group is half protonated) in series [5] was found to be 7.2.
With `CC[C@@H]1C[C@@H](C(=O)NCc2cccc(C)n2)CN(Cc2nc(-c3ccccc3)oc2C)C1`, the Vd in series [6] was 1.4 L/kg. Moreover, the clearance (commonly the volume of plasma or blood freed of the substance per unit of time) in series [7] was 98 mL/min/kg. In series [8], the bioavailability (commonly the share of a dose that reaches the circulation, judged against a reference dose that is usually intravenous) is 7%.
As for `Cc1oc(-c2ccccc2)nc1CN1CCC[C@@H](C(=O)NC[C@H]2CCCO2)C1`, the half-life in series [1] was determined as 11.6 min. In addition, the microsomal CLint in series [2] amounted to 84 µL/min/mg.
The matching figures for `CC[C@@H]1C[C@@H](C(=O)NCc2cccc(N)n2)CN(Cc2nc(N3CCOCC3)oc2C)C1`: 8.9 min and 110 µL/min/mg.
`Cc1cccc(CNC(=O)C2CN(Cc3nc(-c4ccccc4)oc3C)CCO2)n1` (stereo not given) came in with an IC50 in series [3] greater than 10 µM.
`Cc1oc(-c2ccccc2)nc1CN1CCCC(C(=O)NCC2CCOCC2)C1` (stereo not given): in series [1], the half-life amounted to 9.34 min. The same compound yielded a microsomal CLint in series [2] of 105 µL/min/mg.
The compound `COC[C@H]1C[C@@H](C(=O)NCC2CCOCC2)CN(Cc2nc(-c3ccncn3)[nH]c2C)C1` registered a half-life in series [1] of 49.2 min. This compound had a microsomal CLint in series [2] of 19.9 µL/min/mg.
The matching figures for `CC[C@H]1C[C@@H](C(=O)NCc2cccc(N)n2)CN(Cc2nc(N3CCOCC3)oc2C)C1`: 31.1 min and 31.4 µL/min/mg.
The matching figures for `COC[C@H]1C[C@@H](C(=O)NCC2CCOCC2)CN(Cc2nc(N3CCOCC3)oc2C)C1`: 50.7 min and 19.3 µL/min/mg.
For `Cc1cccc(CNC(=O)[C@@H]2C[C@@H](c3nc(C)no3)CN(Cc3nc(-c4ccccc4)oc3C)C2)n1`, in series [2], the microsomal CLint was 105 µL/min/mg.
As for `CC[C@H]1C[C@H](C(=O)NCc2cccc(C)n2)CN(Cc2nc(-c3ccccc3)oc2C)C1`, the half-life in series [1] was 3 min. Further, the intrinsic metabolic clearance (microsomal CLint) in series [2] is 304 µL/min/mg.
The matching figures for `COC[C@H]1C[C@@H](C(=O)NC[C@H]2CCCO2)CN(Cc2nc(-c3ccccc3)oc2C)C1`: 24.2 min and 40.3 µL/min/mg.
The matching figures for `CC[C@@H]1C[C@@H](C(=O)NCc2cccc(N)n2)CN(Cc2nc(-c3ccccc3)oc2C)C1`: 3.47 min and 281 µL/min/mg.
Turning to `CC[C@@H]1C[C@@H](C(=O)NC[C@H]2CCCO2)CN(Cc2nc(-c3ccncn3)[nH]c2C)C1`, in series [2], the microsomal CLint was 190 µL/min/mg.
In series [1], `CC[C@@H]1C[C@@H](C(=O)NCC2CCOCC2)CN(Cc2nc(-c3ccccc3)oc2C)C1` came in with a half-life of less than 3 min. This compound gave a microsomal CLint in series [2] of 320 µL/min/mg.
The matching figures for `Cc1cccc(CNC(=O)C2CCCN(Cc3nc(-c4ccccc4)oc3C)C2)n1` (stereo not given): 5.76 min and 158 µL/min/mg.
`Cc1cccc(CNC(=O)[C@H]2C[C@H](c3nnc(C)o3)CN(Cc3nc(-c4ccccc4)oc3C)C2)n1`: in series [1], the half-life was less than 3 min. In series [2], this compound displayed a microsomal CLint of 290 µL/min/mg.
On to `CC[C@@H]1C[C@@H](C(=O)NC[C@H]2CCCO2)CN(Cc2nc(-c3ccccc3)oc2C)C1`, for which the half-life in series [1] was less than 3 min. Also, the microsomal CLint in series [2] is greater than 320 µL/min/mg.
Consider `Cc1cccc(CNC(=O)[C@@H]2C[C@@H](c3nnc(C)o3)CN(Cc3nc(-c4ccccc4)oc3C)C2)n1`, for which, in series [2], the intrinsic metabolic clearance (microsomal CLint) was determined as 290 µL/min/mg.
`COC[C@H]1C[C@H](C(=O)NCc2cccc(C)n2)CN(Cc2nc(-c3ccccc3)oc2C)C1`: in series [1], the half-life is less than 3 min. Moreover, the microsomal CLint in series [2] is 304 µL/min/mg.
The matching figures for `COC[C@H]1C[C@@H](C(=O)NC[C@H]2CCCO2)CN(Cc2nc(N3CCOCC3)oc2C)C1`: greater than 120 min and less than 8 µL/min/mg.
The matching figures for `COC[C@@H]1C[C@@H](C(=O)NCC2CCOCC2)CN(Cc2nc(N3CCOCC3)oc2C)C1`: 30.8 min and 31.7 µL/min/mg.
`CC[C@H]1C[C@@H](C(=O)NC[C@@H]2CCCO2)CN(Cc2nc(N3CCOCC3)oc2C)C1` showed a half-life in series [1] of 51.7 min. In addition, in series [2], the microsomal CLint is 18.9 µL/min/mg.
The matching figures for `Cc1cccc(CNC(=O)[C@H]2C[C@H](c3nc(C)no3)CN(Cc3nc(-c4ccccc4)oc3C)C2)n1`: less than 3 min and 290 µL/min/mg.
